Results: patent US20040248765A1, “Tumour targeting prodrugs activated by metallo matrixproteinases” (priority 2001, published 2004)
Structures can show the parent of a compound that is named as a salt. Where two headings read alike, the source gives them in different places. Where a SMILES comes first, the peptide text is derived from it. [ ]: non-standard residue; d: D form. The star is where a group is joined. NH(CH2)3NH(1-anthraquinonyl) = O=C1c2ccccc2C(=O)c2c(NCCCN*)cccc21; Nva = CCC[C@H](N)C(=O)O; Mob = COc1ccc(C*)cc1

How the values were obtained:
[1] = tested on: MAC15A adenocarcinoma of the colon; experiment: In vitro cytotoxicity against MAC15A adenocarcinoma of the colon, 96 hours exposure; format: cell-based
[2] = Mus musculus, exposure time 96 hours, read-out: IC50
[3] = exposure time 96 hours, read-out: IC50

With CC(C)C[C@H](NC(=O)CN)C(=O)N1CCC[C@@H]1C(=O)NCCCNc1cccc2c1C(=O)c1ccccc1C2=O [Example 11, 1-[3-(Glycyl-L-leucyl-D-prolylamino)propylamino]anthraquinone trifluoroacetate] the IC50 ([1]; Mus musculus, 96 h) was 22 µM.
In the case of O=C(O)C(F)(F)F.O=C1c2ccccc2C(=O)c2c(NCCCNC(=O)[C@H]3CCCN3)cccc21 [Example 9, 1-[3-(D-Prolylamino)propylamino]anthraquinone trifluoroacetate], the IC50 ([1]; Mus musculus, 96 h) is reported as 3.5 µM and the melting point is reported as 177 °C.
In the case of CCC[C@H](NC(=O)[C@@H](N)CCC)C(=O)NCC(=O)N[C@@H](CC(C)C)C(=O)N1CCC[C@H]1C(=O)NCCCNc1cccc2c1C(=O)c1ccccc1C2=O.O=C(O)C(F)(F)F [Example 45, 1-[3-(L-Norvalyl-L-norvalyl-glycyl-L-leucyl-L-prolylamino)propyl-amino]anthraquinone trifluoroacetate] (H-[Nva][Nva]GLP-{NH(CH2)3NH(1-anthraquinonyl)}), the IC50 [1, 2] is reported as 4 µM and the melting point is reported as 174 to 176 °C.
Molecule CCC[C@H](NC(=O)[C@H](C)NC(=O)[C@@H](C)N)C(=O)N[C@@H](CCC)C(=O)NCC(=O)N[C@@H](CC(C)C)C(=O)N1CCC[C@H]1C(=O)NCCCNc1cccc2c1C(=O)c1ccccc1C2=O [Example 47, 1-[3-(D-AlanyI-L-alanyl-L-norvalyl-L-norvalyl-glycyl-L-leucyl-L-prolylamino)propylamino]anthraquinone trifluoroacetate] (H-[dA]A[Nva][Nva]GLP-{NH(CH2)3NH(1-anthraquinonyl)}) has an IC50 [1, 3] of 22 µM.
With CC[C@H](C)[C@H](N)C(=O)NCC(=O)N[C@@H](Cc1ccccc1)C(=O)N1CCC[C@H]1C(=O)NCCCNc1cccc2c1C(=O)c1ccccc1C2=O.O=C(O)C(F)(F)F [Example 74, 1-[3-(L-Isoleucyl-glycyl-L-phenylalanyl-L-prolylamino)propylamino]-anthraquinone trifluoroacetate] the IC50 [1, 2] was 2.5 µM and the melting point was 122 to 124 °C.
CCC[C@H](NC(=O)[C@H](C)N)C(=O)N[C@@H](CCC)C(=O)NCC(=O)N[C@@H](CC(C)C)C(=O)N1CCC[C@H]1C(=O)NCCCNc1cccc2c1C(=O)c1ccccc1C2=O [Example 46, 1-3-(L-Alanyl-L-norvalyl-L-norvalyl-glycyl-L-leucyl-L-prolylamino)-propylamino]anthraquinone trifluoroacetate] (H-A[Nva][Nva]GLP-{NH(CH2)3NH(1-anthraquinonyl)}) showed an IC50 [1, 3] of 8 µM.
For CC(C)C[C@H](NC(=O)[C@H](C)NC(=O)[C@H](C)N)C(=O)NCC(=O)N[C@@H](CC(C)C)C(=O)N1CCC[C@@H]1C(=O)NCCCNc1cccc2c1C(=O)c1ccccc1C2=O.O=C(O)C(F)(F)F [Example 14, 1-[3-(L-Alanyl-L-alanyl-L-leucyl-glycyl-L-leucyl-D-prolylamino)-propylamino]anthraquinone trifluoroacetate], the IC50 [1, 2] was 38 µM and the melting point was 132 °C.
Work on CC(C)C[C@H](NC(=O)[C@H](C)NC(=O)[C@H](C)NC(=O)[C@@H](C)N)C(=O)NCC(=O)N[C@@H](CC(C)C)C(=O)N1CCC[C@@H]1C(=O)NCCCNc1cccc2c1C(=O)c1ccccc1C2=O.O=C(O)C(F)(F)F [Example 15, 1-[3-(D-Alanyl-L-alanyl-L-alanyl-L-leucyl-glycyl-L-leucyl-D-prolylamino)propylamino]anthraquinone trifluoroacetate] (H-[dA]AALGL[dP]-{NH(CH2)3NH(1-anthraquinonyl)}) yielded an IC50 ([1]; Mus musculus, 96 h) of 40 µM and a melting point of 166 °C.
With CC[C@H](C)[C@H](NC(=O)[C@H](Cc1ccccc1)NC(=O)[C@@H](N)CC(C)C)C(=O)NCC(=O)N[C@@H](Cc1ccccc1)C(=O)N1CCC[C@H]1C(=O)NCCCNc1cccc2c1C(=O)c1ccccc1C2=O.O=C(O)C(F)(F)F [Example 76, 1-[3-(L-Leucyl-L-phenylalanyl-L-isoleucyl-glycyl-L-phenylalanyl-L-prolylamino)propylamino]anthraquinone trifluoroacetate] the IC50 [1, 2] was 21 µM and the melting point was 166 to 178 °C.
In the case of CCC[C@H](NC(=O)[C@H](C)NC(=O)[C@H](C)N)C(=O)NCC(=O)N[C@@H](CC(C)C)C(=O)N1CCC[C@H]1C(=O)NCCCNc1cccc2c1C(=O)c1ccccc1C2=O.O=C(O)C(F)(F)F (H-AA[Nva]GLP-{NH(CH2)3NH(1-anthraquinonyl)}), the melting point is reported as 197 °C.
In the case of COc1ccc(CSC[C@H](NC(=O)[C@H](C)NC(=O)[C@H](C)N)C(=O)NCC(=O)N[C@@H](CC(C)C)C(=O)N2CCC[C@H]2C(=O)NCCCNc2cccc3c2C(=O)c2ccccc2C3=O)cc1.O=C(O)C(F)(F)F (H-AAC(Mob)GLP-{NH(CH2)3NH(1-anthraquinonyl)}), the melting point is reported as 182 °C.
Molecule NCC(=O)N[C@@H](Cc1ccccc1)C(=O)N1CCC[C@H]1C(=O)NCCCNc1cccc2c1C(=O)c1ccccc1C2=O.O=C(O)C(F)(F)F [Example 73, 1-[3-(Glycyl-L-phenylalanyl-L-prolylamino)propylamino]anthraquinone trifluoroacetate] has an IC50 ([1]; Mus musculus, 96 h) of 2.5 µM and a melting point of 129 °C.
With CCC[C@H](NC(=O)[C@H](C)N)C(=O)NCC(=O)N[C@@H](CC(C)C)C(=O)N1CCC[C@H]1C(=O)NCCCNc1cccc2c1C(=O)c1ccccc1C2=O.O=C(O)C(F)(F)F (H-A[Nva]GLP-{NH(CH2)3NH(1-anthraquinonyl)}) the melting point was 198 °C.
In the case of CCC[C@H](NC(=O)CNC(=O)[C@H](CC(C)C)NC(=O)[C@H](C)N)C(=O)N1CCC[C@H]1C(=O)NCCCNc1cccc2c1C(=O)c1ccccc1C2=O.O=C(O)C(F)(F)F (H-ALG[Nva]P-{NH(CH2)3NH(1-anthraquinonyl)}), the melting point is reported as 176 to 178 °C.
Molecule CC(C)C[C@H](N)C(=O)N1CCC[C@@H]1C(=O)NCCCNc1cccc2c1C(=O)c1ccccc1C2=O [Example 10, 1-[3-(L-Leucyl-D-prolylamino)propylamino]anthraquinone trifluoroacetate] has an IC50 ([1]; Mus musculus, 96 h) of 7 µM.
CC(C)C[C@H](NC(=O)[C@H](C)N)C(=O)N1CCC[C@H]1C(=O)NCCCNc1cccc2c1C(=O)c1ccccc1C2=O.O=C(O)C(F)(F)F showed a melting point of 170 to 174 °C.
CC[C@H](C)[C@H](NC(=O)[C@H](Cc1ccccc1)NC(=O)[C@H](CC(C)C)NC(=O)[C@@H](C)N)C(=O)NCC(=O)N[C@@H](Cc1ccccc1)C(=O)N1CCC[C@H]1C(=O)NCCCNc1cccc2c1C(=O)c1ccccc1C2=O.O=C(O)C(F)(F)F [Example 77, 1-[3-(D-Alanyl-L-Leucyl-L-Phenylalanyl-L-isoleucyl-glycyl-L-phenylalanyl-L-prolylamino)propylamino]anthraquinone trifluoroacetate] gave an IC50 [1, 2] of 24 µM and a melting point of 142 to 148 °C.
Work on CC(C)C[C@H](NC(=O)[C@H](C)NC(=O)[C@@H](N)CC(C)C)C(=O)N1CCC[C@H]1C(=O)NCCCNc1cccc2c1C(=O)c1ccccc1C2=O.O=C(O)C(F)(F)F (H-LALP-{NH(CH2)3NH(1-anthraquinonyl)}) yielded a melting point of 178 to 180 °C.
In the case of CCCC[C@H](NC(=O)[C@H](C)NC(=O)[C@H](C)NC(=O)[C@@H](C)N)C(=O)NCC(=O)N[C@@H](CC(C)C)C(=O)N1CCC[C@H]1C(=O)NCCCNc1cccc2c1C(=O)c1ccccc1C2=O.O=C(O)C(F)(F)F, the melting point is reported as 192 °C.
For N[C@@H](Cc1ccccc1)C(=O)N1CCC[C@H]1C(=O)NCCCNc1cccc2c1C(=O)c1ccccc1C2=O.O=C(O)C(F)(F)F [Example 72, 1-[3-(L-Phenylalanyl-L-prolylamino)propylamino]anthraquinone trifluoroacetate], the IC50 ([1]; Mus musculus, 96 h) was 3 µM and the melting point was 118 to 120 °C.
With CC(C)C[C@H](NC(=O)CNC(=O)[C@H](C)N)C(=O)N[C@@H](C)C(=O)N[C@@H](CC(C)C)C(=O)N1CCC[C@H]1C(=O)NCCCNc1cccc2c1C(=O)c1ccccc1C2=O.O=C(O)C(F)(F)F (H-AGLALP-{NH(CH2)3NH(1-anthraquinonyl)}) the melting point was 185 °C.
In the case of CCC[C@H](NC(=O)[C@H](Cc1ccc(O)cc1)NC(=O)[C@H](C)N)C(=O)NCC(=O)N[C@@H](CC(C)C)C(=O)N1CCC[C@H]1C(=O)NCCCNc1cccc2c1C(=O)c1ccccc1C2=O.O=C(O)C(F)(F)F (H-AY[Nva]GLP-{NH(CH2)3NH(1-anthraquinonyl)}), the melting point is reported as 182 °C.
CC(C)C[C@H](NC(=O)CNC(=O)[C@H](C)NC(=O)[C@@H](C)N)C(=O)N[C@@H](C)C(=O)N[C@@H](CC(C)C)C(=O)N1CCC[C@H]1C(=O)NCCCNc1cccc2c1C(=O)c1ccccc1C2=O.O=C(O)C(F)(F)F gave a melting point of 192 °C.
Molecule CC(C)C[C@H](NC(=O)[C@@H](N)Cc1ccccc1)C(=O)N1CCC[C@H]1C(=O)NCCCNc1cccc2c1C(=O)c1ccccc1C2=O.O=C(O)C(F)(F)F has a melting point of 184 to 188 °C.
Molecule NCC(=O)N1CCC[C@@H]1C(=O)NCCCNc1cccc2c1C(=O)c1ccccc1C2=O.O=C(O)C(F)(F)F has a melting point of 156 to 162 °C.
N[C@@H](Cc1ccccc1)C(=O)N1CCC[C@@H]1C(=O)NCCCNc1cccc2c1C(=O)c1ccccc1C2=O.O=C(O)C(F)(F)F showed a melting point of 118 to 120 °C.
CC(C)C[C@H](N)C(=O)NCC(=O)N1CCC[C@H]1C(=O)NCCCNc1cccc2c1C(=O)c1ccccc1C2=O.O=C(O)C(F)(F)F showed a melting point of 172 to 174 °C.
For CC[C@H](C)[C@H](NC(=O)[C@@H](N)Cc1ccccc1)C(=O)NCC(=O)N[C@@H](Cc1ccccc1)C(=O)N1CCC[C@H]1C(=O)NCCCNc1cccc2c1C(=O)c1ccccc1C2=O.O=C(O)C(F)(F)F [Example 75, 1-[3-(L-Phenylalanyl-L-isoleucyl-glycyl-L-phenylalanyl-L-prolylamino)-propylamino]anthraquinone trifluoroacetate], the IC50 [1, 2] was 20 µM and the melting point was 132 to 136 °C.
In the case of CC(C)C[C@H](NC(=O)CNC(=O)[C@@H](N)CC(C)C)C(=O)N1CCC[C@@H]1C(=O)NCCCNc1cccc2c1C(=O)c1ccccc1C2=O [Example 12, 1-[3-(L-Leucyl-glycyl-L-leucyl-D-prolylamino)propylamino]-anthraquinone trifluoroacetate] (H-LGL[dP]-{NH(CH2)3NH(1-anthraquinonyl)}), the IC50 ([1]; Mus musculus, 96 h) is reported as 30 µM.
